In patent publication US20040250313A1, “Insecticidal proteins and synergistic combinations thereof” (priority 2001, published 2004):
Several values for one entry are separate records, joined by “and”; a condition that tells them apart may be missing. Equal values may be shown once. Positions of bridges follow the written chain, without caps; N, C: chain ends. Residues, ends and D or L forms follow the SMILES beside them. No end group written: not given here.

What was measured:
Assay type in all cases: in vivo
[1] = system: Heliothis virescens; assay: LC50 determination, cotton leaf bioassay as in Example 2; details: individual test, logit analysis
Protocol: (§1) Prior to the assay, twenty neonate Heliothis virescens larvae were gently brushed into each of three ‘minipot’ containers per treatment (i.e. three replicates per treatment). The peptide to be tested was diluted using sterile, deionised water to create a range of test concentrations for determination of a kill curve.
(§2) Three freshly excised cotton leaves per treatment had 0.05 ml of the appropriate peptide solution applied by pipette to the centre of the axial surface of each leaf. The droplet was then spread over a circular area in excess of the diameter of a minipot with a fine artists paint brush (a fresh paint brush being used for each compound to avoid contamination), the concentrations being applied from lowest to highest. The leaves were left in a fume cupboard just long enough for the surface deposit to dry, but care was taken to avoid excessive leaf wilting.
Once dry the leaves were placed, contaminated surface down over the appropriately labelled, pre-infested minipot and a lid snapped over it. […]
After three days the numbers of live larvae remaining were counted and percent mortality determined. […] Damage to the leaf was also assessed and represented as percent feeding inhibition.
Mean LC50 values were determined for the synthetic peptide, GGK-445, having the amino acid sequence designated in SEQ ID No. 2. […]

[2] = system: Helicoverpa armigera; assay: as above
[3] = system: Spodoptera littoralis; assay: as above
[4] = system: Spodoptera exigua; assay: as above; details: individual test, logit analysis
[5] = system: Heliothis virescens; assay: Comparative insect bioassay on treated cotton leaves, neonate larvae in minipots; details: after three days; for corrected % kill: Abbott's formula corrected
Protocol: These were carried out between the synthetic peptide having the sequence depicted as SEQ ID No. 2 (also referred to as the GGK-445 peptide) and the insecticidal peptide obtainable from the fungus Paecilomyces farinosus (referred to as “445”) and described in International Patent Application Publication Number WO01/00841. This protein, having the sequence depicted as SEQ ID No. 41, was synthesised, purified and the N-terminal Glycine was acetylated.
as §1, §2
Once dry the leaves were placed, contaminated surface down over the appropriately labelled, pre-infested minipot and a lid snapped over it. The minipots were placed in plastic trays and placed in a controlled environment room at 25-27° C.
After three days the numbers of live larvae remaining were counted and percent mortality determined. Percent mortality for the peptide treatments was corrected in comparison with the water-treated control using the Abbott's formula. Damage to the leaf was also assessed and represented as percent feeding inhibition.

[6] = individual test, logit analysis

Molecule | % feeding reduction compared to control ([5]; dose 0.15 ppm) | % feeding reduction compared to control ([5]; dose 0.46 ppm) | % feeding reduction compared to control ([5]; dose 1.37 ppm) | % feeding reduction compared to control ([5]; dose 4.12 ppm) | % feeding reduction compared to control ([5]; dose 12.35 ppm) | % feeding reduction compared to control ([5]; dose 37.04 ppm) | % feeding reduction compared to control ([5]; dose 111.11 ppm) | % feeding reduction compared to control ([5]; dose 333.33 ppm) | % feeding reduction compared to control ([5]; dose 1000 ppm) | other results
CC[C@H](C)[C@@H]1NC(=O)[C@@H]2CSSC[C@@H]3NC(=O)[C@H](CCCCN)NC(=O)[C@H](C(C)C)NC(=O)CNC(=O)[C@H](C)NC(=O)[C@@H]4CCCN4C(=O)[C@H]([C@@H](C)O)NC(=O)[C@@H](NC(=O)[C@@H](NC(=O)[C@H](CCCCN)NC(=O)CNC(=O)CN)[C@@H](C)CC)CSSC[C@H](NC(=O)[C@H](CSSC[C@@H](C(=O)N[C@@H](CCCNC(=N)N)C(=O)O)NC(=O)[C@H](C(C)C)NC(=O)[C@H](CCCCN)NC(=O)[C@H](CC(N)=O)NC(=O)[C@H](CC(N)=O)NC(=O)[C@H](C(C)C)NC(=O)CNC(=O)CNC1=O)NC(=O)[C@@H]1CCCN1C(=O)[C@H](CC(C)C)NC(=O)[C@H](C)NC(=O)[C@H](C)NC(=O)[C@@H]1CCCN1C3=O)C(=O)N1CCC[C@H]1C(=O)NCC(=O)N[C@@H](CC(C)C)C(=O)N[C@@H](CCCNC(=N)N)C(=O)N2 [GGK-445] (H-GGKICTPAGVKCPAALPCCPGLRCIGGVNNKVCR-OH; disulfide 5-19, 12-24, 18-33; N-terminus and C-terminus assumed) | 0.0% | 0.0% | 0.0% | 6.4% | 6.4% | 25.1% | 50.1% | 62.5% | 81.3% | LC50 [1]: 171.15 ppm; LC50 [2, 6]: 113.24 ppm and 421.93 ppm; mean LC50 ([2]; mean of individual tests): 657.21 ppm; LC50 [3, 6]: 283.26 ppm and 626.72 ppm and 371.71 ppm and 201.91 ppm; mean LC50 ([3]; mean of individual tests): 343.75 ppm; LC50 [4]: 339.21 ppm and 972.5 ppm and 271.32 ppm
Y1945F - synthesised, acetylated-445: insecticidal peptide obtainable from the fungus Paecilomyces farinosus, described in WO01/00841; SEQ ID No. 41, synthesised, purified, N-terminal Glycine acetylated (Ac-GKICTPAGVKCPAALPCCPGLRCIGGVNNKVCR; cysteine pairing not given here) | 0.0% | 0.0% | 0.0% | 43.8% | 68.8% | 68.8% | 83.8% | 88.8% | 91.3% | corrected % kill ([5]; dose 0.15 ppm): 0.0%; corrected % kill ([5]; dose 0.46 ppm): 5.6%; corrected % kill ([5]; dose 1.37 ppm): 13.0%; corrected % kill ([5]; dose 4.12 ppm): 48.1%; corrected % kill ([5]; dose 12.35 ppm): 75.9%; corrected % kill ([5]; dose 37.04 ppm): 72.2%; corrected % kill ([5]; dose 111.11 ppm): 98.1%; corrected % kill ([5]; dose 333.33 ppm): 98.1%; corrected % kill ([5]; dose 1000 ppm): 100.0%
